Reference: US20180153837A1, “METHODS OF IMPROVING PHYSIOLOGICAL RESPONSES RELATED TO POST-TRAUMATIC STRESS DISORDER THROUGH DIETARY SUPPLEMENTATION” (Natural Alternatives International, Inc., priority 2015, published 2018)
Where two headings read alike, the source gives them in different places.

How the values were obtained:
BDNF [1] = conditions: mice, β-alanine supplemented diet; cited from earlier work
brain carnosine [2] = conditions: mice, β-alanine supplemented diet; cited from earlier work
mice = conditions: β-alanine supplemented diet; cited from earlier work
brain carnosine [3] = conditions: for Brain Carnosine Concentrations, Amygdala / Brain Carnosine Concentrations, Cortex / Brain Carnosine Concentrations, Hippocampus / Brain Carnosine Concentrations, Hypothalamus / Brain Carnosine Concentrations, Olfactory bulb / Brain Carnosine Concentrations, Thalamus: 30 days BA, mean ± SD
Experimental: (§1) Adult male Sprague-Dawley rats weighing 200-250 gm (n=122) were habituated to housing conditions for at least seven days. All animals were housed four per cage in a vivarium with stable temperature and a reversed 12-h light/dark cycle, with unlimited access to food and water. β-alanine was provided with glucomannan in a powder form in an 80:20 blend. Rats were provided with 100 mg of the powder per kg of body mass (a total of 30 mg of powder was dissolved in 25 ml of water). PL treated rats were provided with the vehicle (glucommanan) at the same relative dose. Animals were handled once daily. All testing was performed during the dark phase in dim red light conditions. This study was performed according to the principles and guidelines of the National Institute of Health Guide for the Care and Use of Laboratory Animals. All treatment and testing procedures were approved by the Animal Care Committee of the Ben-Gurion University of the Negev, Israel.
Rats were randomly assigned to one of four treatment groups (n=30 or 31 per group):
(§2) Following the 7-day acclimation period in which all rats received a normal powder diet, they were randomized into the four groups. Following 30-days of either normal diet or β-alanine supplemented diet the rats were exposed to either the PSS or sham protocol. All behavioral tests were conducted 7 days following the PSS or sham protocol, and the rats were then sacrificed 24 hours later and brains were removed. Diets were maintained until the end of the study.
(§3) Following the 30-day supplementation regimen, animals were exposed to the PSS protocol. The PSS protocol consisted of placing the experimental animal on well-soiled cat litter (in use by the cat for 2 days, sifted for stools) for 10 minutes in a closed environment. Control animals were exposed to fresh, unused litter for the same amount of time. The situational reminder consisted of placing animals on fresh, unused cat litter for 15 minutes.
Carnosine concentrations in brain homogenates were determined by LC-MS-MS analysis.
Brains were partially thawed on ice and six brain regions were sampled: cerebral cortex, hypothalamus, hippocampus, amygdala, olfactory bulb, and thalamus. Each sample was weighed and transferred into individual vials for further homogenization.
Brain samples were homogenized in saline (0.9% NaCl; 100 mg/l ml) supplemented with 1 mM EDTA, using Polytron Homogenizer. Homogenates were stored at −20°±5° C. prior to LC/MS/MS analysis. L-Carnosine purchased from Sigma was used to prepare standards for the calibration curve (in ppb). Samples were diluted ×5 prior to analysis. The concentration read from the standard curve was multiplied by the dilution factor and converted to ppm units.

[4] = tested on: animal model of post-traumatic stress disorder (PTSD)
Experimental: as §1, §2, §3

BDNF [5] = tested on: BDNF
Experimental: as §1, §2

[6] = β-alanine taken as a free amino acid; cited from earlier work
corticosterone = tested on: corticosterone
Experimental: as §1
Following the 7-day acclimation period in which all rats received a normal powder diet, they were randomized into the four groups. Following 30-days of either normal diet or β-alanine supplemented diet the rats were exposed to either the PSS or sham protocol. […]
Plates were read at 450 nm. […] All samples were measured in duplicate.

[7] = PSS+BA: rats exposed to PSS, Day 8 post-PSS
[8] = UNEX+BA: rats not exposed to PSS
[9] = PSS+PL compared with PSS+BA (and UNEX groups), 7 days after PSS

NCCC(=O)O [BA, β-alanine]
concentration of BDNF in the hippocampus (BDNF [1]): increase the concentration of BDNF | brain carnosine concentrations in the cerebral cortex and hypothalamus (brain carnosine [2]): increase brain carnosine concentrations | activity in the open arms of an elevated plus-maze test (mice): significantly greater activity | Brain Carnosine Concentrations, Amygdala (brain carnosine [3]; [7]): 3.52 ± 3.84 a, c mg · L^−1 | Brain Carnosine Concentrations, Cortex (brain carnosine [3]; [7]): 6.55 ± 4.90 a, c mg · L^−1 | Brain Carnosine Concentrations, Hippocampus (brain carnosine [3]; [7]): 5.58 ± 4.39 a, c mg · L^−1 | Brain Carnosine Concentrations, Hypothalamus (brain carnosine [3]; [7]): 4.54 ± 4.04 a, c mg · L^−1 | Brain Carnosine Concentrations, Olfactory bulb (brain carnosine [3]; [7]): 13,109 ± 9,773 mg · L^−1 | Brain Carnosine Concentrations, Thalamus (brain carnosine [3]; [7]): 5.97 ± 4.48 a, c mg · L^−1 | Brain Carnosine Concentrations, Amygdala (brain carnosine [3]; [8]): 2.34 ± 3.04 mg/L | Brain Carnosine Concentrations, Cortex (brain carnosine [3]; [8]): 3.78 ± 4.47 a mg · L^−1 | Brain Carnosine Concentrations, Hippocampus (brain carnosine [3]; [8]): 3.75 ± 3.98 a mg · L^−1 | Brain Carnosine Concentrations, Hypothalamus (brain carnosine [3]; [8]): 2.60 ± 2.85 mg/L | Brain Carnosine Concentrations, Olfactory bulb (brain carnosine [3]; [8]): 8,309 ± 6,887 mg · L^−1 | Brain Carnosine Concentrations, Thalamus (brain carnosine [3]; [8]): 3.99 ± 5.10 a mg · L^−1 | Brain carnosine concentrations in the hippocampus and other brain sections (brain carnosine [3]; animals supplemented with BA compared to PL): significantly greater | influence on carnosine concentrations in the olfactory bulb (brain carnosine [3]; supplemented versus normal diet): did not appear to have any influence | startle amplitude ([4]; PSS+BA compared with PSS+PL, p=0.085): tended to have a lower startle amplitude | EPM scores ([4]; PSS+BA compared with UNEX+BA): comparable scores to UNEX+BA | startle amplitude ([4]; PSS+BA compared with unexposed animals (normal diet p<0.001; BA p=0.0001)): significantly greater | immobility upon cue ([4]; PSS+BA compared with unexposed animals (normal diet p=0.01; BA p=0.003)): significantly greater immobility upon cue | freezing, difference ([4]; PSS+BA less than PSS+PL, p=0.148): approximately 6% | freezing, significance of difference ([4]; PSS+BA versus PSS+PL, p=0.148): not statistically different | freezing upon cue-exposure (percentage of total time) ([4]; PSS+BA, Day 8): 34.8% | number of open arm entries in the EPM [4, 9]: significantly less | time in the open arms of the EPM [4, 9]: significantly less time in the open arms | Anxiety index ([4]; PSS+PL compared with PSS+BA, p<0.05): higher | startle habituation score ([4]; animals exposed to PSS regardless of diet versus unexposed groups, p<0.001): significantly lower habituation score | lower startle response ([4]; exposed + β-alanine versus exposed not supplemented, p=0.085): 19% | lower freezing response ([4]; exposed + β-alanine versus exposed not supplemented, p=0.148): 15% | BDNF expression, CA1 subregion (BDNF [5]; PSS+BA compared with PSS+PL, p<0.001): significantly greater than exposed rats fed a normal diet | BDNF expression, DG subregion (BDNF [5]; PSS+BA compared with PSS+PL, p=0.011): greater | BDNF expression, CA1 subregion (BDNF [5]; PSS+BA compared with unexposed animals): significantly lower than unexposed animals | BDNF expression, DG subregion (BDNF [5]; PSS+BA compared with unexposed animals (p=0.765, p=0.818)): not statistically different | BDNF expression in unexposed rats (BDNF [5]; UNEX+BA versus UNEX+PL): did not appear to increase BDNF expression | duration of flushing/tingling of the skin [6]: less than 60 minutes | corticosterone concentrations (corticosterone; PSS+BA compared with unexposed animals, p<0.001): significantly higher corticosterone concentrations | corticosterone concentrations (corticosterone; exposed rats normal diet versus exposed rats BA, p=0.837): No significant differences
